Source: patent publication US11986532B2 (Arvinas Operations, Inc., priority 2021, dated 2024)
Like-named read-outs stand apart in the source and are kept apart here.

Target: T1, BCL6 (Homo sapiens, UniProt P41182)
T1 construct: endogenous in cells; host or cells: T47D breast cancer epithelial cells
Experiment: Immunofluorescence protocol for high content imaging of BCL6 (degradation) in T47D cells, 3 days compound treatment
Type: cell-based
Conditions: for DC50: read-out: Mean DC50 (nM)* category; for Dmax: read-out: Mean Dmax (%)** category
Procedure, shortened: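 T47D, RPMI1640/10% FBS; cpd 11-pt 3-fold, top 0.1 or 1 μM final; 3 d, 37° C. Fix 4% PFA, perm 0.1% Triton, block 3% BSA; anti-BCL6 1:300 o/n 4° C; Alexa-488 2°, CellMask-647, Hoechst. Imaged 10×, 4 fields/well.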

[1] = T47D cells, 3 days compound treatment

Row | DC50 [1] [nM] | Dmax [1] [%] | SMILES | Dmax (T47D) [%] | DC50 [nM] | Mean Dmax (%)** category
1 | < 10 | 50 to 70 | CNC(=O)COc1cc2cc(Nc3nc(N4CCC(OC5CCC6(CC5)CN(c5ccc7c(c5)C(=O)N(C5CCC(=O)NC5=O)C7)C6)CC4)ncc3Cl)ccc2n(C(C)C)c1=O (centres unmarked) [Compound 69, 2-{[6-({5-chloro-2-[4-({2-[2-(2,6-dioxopiperidin-3-yl)-3-oxo-2,3-dihydro-1H-isoindol-5-yl]-2-azaspiro[3.5]nonan-7-yl}oxy)piperidin-1-yl]pyrimidin-4-yl}amino)-2-oxo-1-(propan-2-yl)-1,2-dihydroquinolin-3-yl]oxy}-N-methylacetamide] |  |  | 
2 | < 10 | 50 to 70 | CNC(=O)COc1cc2cc(Nc3nc(N4CCC(O[C@H]5CC[C@H](Oc6cccc7c6C(=O)N(C6CCC(=O)NC6=O)C7=O)CC5)CC4)ncc3Cl)ccc2n(C(C)C)c1=O (some centres unmarked) [Compound 31, 2-[(6-{[5-chloro-2-(4-{[(1r,4r)-4-{[2-(2,6-dioxopiperidin-3-yl)-1,3-dioxo-2,3-dihydro-1H-isoindol-4-yl]oxy}cyclohexyl]oxy}piperidin-1-yl)pyrimidin-4-yl]amino}-2-oxo-1-(propan-2-yl)-1,2-dihydroquinolin-3-yl)oxy]-N-methylacetamide] |  |  | 
3 |  |  | CNC(=O)COc1cc2cc(Nc3nc(N4CCC(N5CCC56CN(C5CCN(c7ccc8c(c7)C(=O)N(C7CCC(=O)NC7=O)C8=O)C5)C6)CC4)ncc3Cl)ccc2n(C(C)C)c1=O (centres unmarked) [Compound 221, 2-{[6-({5-chloro-2-[4-(6-{1-[2-(2,6-dioxopiperidin-3-yl)-1,3-dioxo-2,3-dihydro-1H-isoindol-5-yl]pyrrolidin-3-yl}-1,6-diazaspiro[3.3]heptan-1-yl)piperidin-1-yl]pyrimidin-4-yl}amino)-2-oxo-1-(propan-2-yl)-1,2-dihydroquinolin-3-yl]oxy}-N-methylacetamide] | 50 to 70 | < 10 | 
4 |  |  | CNC(=O)COc1cc2cc(Nc3nc(N4CCC(O[C@H]5C[C@H](N6CCC7(CCN(c8ccc9c(c8)CN(C8CCC(=O)NC8=O)C9=O)CC7)C6)C5)CC4)ncc3Cl)ccc2n(C(C)C)c1=O (some centres unmarked) [Compound 363, 2-({6-[(5-chloro-2-{4-[(1r,3r)-3-{8-[2-(2,6-dioxopiperidin-3-yl)-1-oxo-2,3-dihydro-1H-isoindol-5-yl]-2,8-diazaspiro[4.5]decan-2-yl}cyclobutoxy]piperidin-1-yl}pyrimidin-4-yl)amino]-2-oxo-1-(propan-2-yl)-1,2-dihydroquinolin-3-yl}oxy)-N-methylacetamide] |  | < 10 | A (A >= 70)
5 |  |  | CNC(=O)COc1cc2cc(Nc3nc(N4CCC(O[C@H]5C[C@H](N6[C@H](C)CN(c7ccc8c(c7)C(=O)N(C7CCC(=O)NC7=O)C8=O)C[C@H]6C)C5)CC4)ncc3Cl)ccc2n(C(C)C)c1=O (stereo partly drawn) [Compound 249, 2-({6-[(5-chloro-2-{4-[(1r,3r)-3-[(2R,6R)-4-[2-(2,6-dioxopiperidin-3-yl)-1,3-dioxo-2,3-dihydro-1H-isoindol-5-yl]-2,6-dimethylpiperazin-1-yl]cyclobutoxy]piperidin-1-yl}pyrimidin-4-yl)amino]-2-oxo-1-(propan-2-yl)-1,2-dihydroquinolin-3-yl}oxy)-N-methylacetamide] | < 50 | 10 to 50 | 
6 |  |  | CNC(=O)COc1cc2cc(Nc3nc(N4CCC(O[C@H]5C[C@H](N6CCC(c7cc(OC)c8c(c7F)CN([C@H]7CCC(=O)NC7=O)C8=O)CC6)C5)CC4)ncc3Cl)ccc2n(C(C)C)c1=O [Compound 407, 2-({6-[(5-chloro-2-{4-[(1r,3r)-3-(4-{2-[(3S)-2,6-dioxopiperidin-3-yl]-4-fluoro-7-methoxy-1-oxo-2,3-dihydro-1H-isoindol-5-yl}piperidin-1-yl)cyclobutoxy]piperidin-1-yl}pyrimidin-4-yl)amino]-2-oxo-1-(propan-2-yl)-1,2-dihydroquinolin-3-yl}oxy)-N-methylacetamide] | ≥ 70 | < 10 | 
7 |  |  | CNC(=O)COc1cc2cc(Nc3nc(N4CCN(CC5CC6(CCN(c7cc8c(cc7F)C(=O)N(C7CCC(=O)NC7=O)C8)CC6)C5)CC4)ncc3Cl)ccc2n(C(C)C)c1=O (centres unmarked) [Compound 318, 2-{[6-({5-chloro-2-[4-({7-[2-(2,6-dioxopiperidin-3-yl)-6-fluoro-1-oxo-2,3-dihydro-1H-isoindol-5-yl]-7-azaspiro[3.5]nonan-2-yl}methyl)piperazin-1-yl]pyrimidin-4-yl}amino)-2-oxo-1-(propan-2-yl)-1,2-dihydroquinolin-3-yl]oxy}-N-methylacetamide] | 50 to 70 | < 10 | 
8 |  |  | CNC(=O)COc1cc2cc(Nc3nc(N4CCC(O[C@H]5C[C@H](N6CCC(c7ccc8c(c7F)[C@H](C)N(C7CCC(=O)NC7=O)C8=O)CC6)C5)CC4)ncc3Cl)ccc2n(C(C)C)c1=O (stereo partly drawn) [Compound 291, 2-({6-[(5-chloro-2-{4-[(1r,3r)-3-{4-[(3S)-2-(2,6-dioxopiperidin-3-yl)-4-fluoro-3-methyl-1-oxo-2,3-dihydro-1H-isoindol-5-yl]piperidin-1-yl}cyclobutoxy]piperidin-1-yl}pyrimidin-4-yl)amino]-2-oxo-1-(propan-2-yl)-1,2-dihydroquinolin-3-yl}oxy)-N-methylacetamide] | ≥ 70 | < 10 | 
9 | < 10 | 50 to 70 | CNC(=O)COc1cc2cc(Nc3nc(N4CCN(C(C)(C)C5CCN(c6cccc7c6CN(C6CCC(=O)NC6=O)C7=O)CC5)CC4)ncc3Cl)ccc2n(C(C)C)c1=O (centres unmarked) [Compound 104, 2-{[6-({5-chloro-2-[4-(2-{1-[2-(2,6-dioxopiperidin-3-yl)-1-oxo-2,3-dihydro-1H-isoindol-4-yl]piperidin-4-yl}propan-2-yl)piperazin-1-yl]pyrimidin-4-yl}amino)-2-oxo-1-(propan-2-yl)-1,2-dihydroquinolin-3-yl]oxy}-N-methylacetamide] |  |  | 
10 | < 10 | 50 to 70 | CNC(=O)COc1cc2cc(Nc3nc(N4CCN(CC5CC6(CCN(c7ccc8c(c7)CN(C7CCC(=O)NC7=O)C8=O)CC6)C5)CC4)ncc3Cl)ccc2n(C(C)C)c1=O (centres unmarked) [Compound 6, 2-{[6-({5-chloro-2-[4-({7-[2-(2,6-dioxopiperidin-3-yl)-1-oxo-2,3-dihydro-1H-isoindol-5-yl]-7-azaspiro[3.5]nonan-2-yl}methyl)piperazin-1-yl]pyrimidin-4-yl}amino)-2-oxo-1-(propan-2-yl)-1,2-dihydroquinolin-3-yl]oxy}-N-methylacetamide] |  |  | 
11 |  |  | CNC(=O)COc1cc2cc(Nc3nc(N4CCC(OC5CCC6(CC5)CN(c5ccc7c(c5Cl)CN(C5CCC(=O)NC5=O)C7=O)C6)CC4)ncc3Cl)ccc2n(C(C)C)c1=O (centres unmarked) [Compound 383, 2-{[6-({5-chloro-2-[4-({2-[4-chloro-2-(2,6-dioxopiperidin-3-yl)-1-oxo-2,3-dihydro-1H-isoindol-5-yl]-2-azaspiro[3.5]nonan-7-yl}oxy)piperidin-1-yl]pyrimidin-4-yl}amino)-2-oxo-1-(propan-2-yl)-1,2-dihydroquinolin-3-yl]oxy}-N-methylacetamide] | ≥ 70 | < 10 | 
12 | < 10 | < 50 | CNC(=O)COc1cc2cc(Nc3nc(N4CCN(CC5CCN(c6ccc7c(c6F)CN(C6CCC(=O)NC6=O)C7=O)CC5)CC4)ncc3Cl)ccc2n(C(C)C)c1=O (centres unmarked) [Compound 25, 2-{[6-({5-chloro-2-[4-({1-[2-(2,6-dioxopiperidin-3-yl)-4-fluoro-1-oxo-2,3-dihydro-1H-isoindol-5-yl]piperidin-4-yl}methyl)piperazin-1-yl]pyrimidin-4-yl}amino)-2-oxo-1-(propan-2-yl)-1,2-dihydroquinolin-3-yl]oxy}-N-methylacetamide] |  |  | 

Row | SMILES | DC50 [1] [nM] | Dmax [1] [%] | Dmax (T47D) [%] | DC50 [nM] | Mean Dmax (%)** category
13 | CNC(=O)COc1cc2cc(Nc3nc(N4CCC(O[C@H]5C[C@H](N6CCC(c7ccc8c(c7OC)CN(C7CCC(=O)NC7=O)C8=O)CC6)C5)CC4)ncc3Cl)ccc2n(C(C)C)c1=O (some centres unmarked) [Compound 72, 2-[[6-[[5-chloro-2-[4-[3-[4-[2-(2,6-dioxo-3-piperidyl)-4-methoxy-1-oxo-isoindolin-5-yl]-1-piperidyl]cyclobutoxy]-1-piperidyl]pyrimidin-4-yl]amino]-1-isopropyl-2-oxo-3-quinolyl]oxy]-N-methyl-acetamide] | < 10 | 50 to 70 |  |  | 
14 | CNC(=O)COc1cc2cc(Nc3nc(N4CCC(O[C@H]5C[C@H](N6C[C@H](C)N(c7ccc8c(c7)CN(C7CCC(=O)NC7=O)C8=O)[C@@H](C)C6)C5)CC4)ncc3Cl)ccc2n(C(C)C)c1=O (relative stereo) [Compound 180, 2-({6-[(5-chloro-2-{4-[(1r,3r)-3-[(3R*,5R*)-4-[2-(2,6-dioxopiperidin-3-yl)-1-oxo-2,3-dihydro-1H-isoindol-5-yl]-3,5-dimethylpiperazin-1-yl]cyclobutoxy]piperidin-1-yl}pyrimidin-4-yl)amino]-2-ox0-1-(propan-2-yl)-1,2-dihydroquinolin-3-yl}oxy)-N-methylacetamide] | < 10 | ≥ 70 |  |  | 
15 | CC[C@H]1CN([C@H]2C[C@H](OC3CCN(c4ncc(Cl)c(Nc5ccc6c(c5)cc(OCC(=O)NC)c(=O)n6C(C)C)n4)CC3)C2)CCN1c1ccc2c(c1Cl)CN(C1CCC(=O)NC1=O)C2=O (stereo partly drawn) [Compound 196, 2-({6-[(5-chloro-2-{4-[(1r,3r)-3-[(3S)-4-[4-chloro-2-(2,6-dioxopiperidin-3-yl)-1-oxo-2,3-dihydro-1H-isoindol-5-yl]-3-ethylpiperazin-1-yl]cyclobutoxy]piperidin-1-yl}pyrimidin-4-yl)amino]-2-oxo-1-(propan-2-yl)-1,2-dihydroquinolin-3-yl}oxy)-N-methylacetamide] | < 10 | ≥ 70 |  |  | 
16 | CNC(=O)COc1cc2cc(Nc3nc(N4CCC(O[C@H]5C[C@H](N6CCC(c7cc(F)c8c(c7OC)CN(C7CCC(=O)NC7=O)C8=O)CC6)C5)CC4)ncc3Cl)ccc2n(C(C)C)c1=O (some centres unmarked) [Compound 128, 2-({6-[(5-chloro-2-{4-[(1r,3r)-3-{4-[2-(2,6-dioxopiperidin-3-yl)-7-fluoro-4-methoxy-1-oxo-2,3-dihydro-1H-isoindol-5-yl]piperidin-1-yl}cyclobutoxy]piperidin-1-yl}pyrimidin-4-yl)amino]-2-oxo-1-(propan-2-yl)-1,2-dihydroquinolin-3-yl}oxy)-N-methylacetamide] | < 10 | 50 to 70 |  |  | 
